Experimental data: US5871779A, “Treatment of arthropathies with vanadate compounds or analogues thereof” (Mount Sinai Hospital Corporation, priority 1996, dated 1999)

How the values were obtained:
[1] = system: proliferating chondrocytes; assay: viability / proliferation of proliferating chondrocytes (low cell density); assay type: cell-based; settings: for proliferation of cells, such as chondrocytes: summary statement
Protocol: In order to compare the effect of orthovanadate on non-proliferating and proliferating chondrocytes, chondrocytes were plated at both high cell density (2×10^6 to 4×10^6 cells/per well on a six well plate) (nonproliferating) and at a lower cell density (5×10^5 to 1×10^6 cells/per well on a six well plate) (proliferating) and then maintained for 48 hours. The cells were then incubated in media (HAMS F12) containing 0-50 μM Orthovanadate for an additional 48 hours. The cells were harvested and the number of viable cells determined.

[2] = system: P388 (ADR); assay: MTT cytotoxicity assay, P388 (ADR); assay type: cell-based, murine; settings: P388 (ADR), 72 hours; read-out: IC50 Value
Procedure, shortened: (§1)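 Growth inhibition is scored colorimetrically: MTT reduction over 4 h following 72 h continuous drug exposure (0.05-100 μM), with DMSO-dissolved formazan measured at 570 nm. The IC50 is the 50% growth inhibition concentration on a % control plot, averaged over three independent assays.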

[3] = system: SK-OV-3; assay: MTT cytotoxicity assay, SK-OV-3; assay type: cell-based, human; settings: SK-OV-3, 72 hours
Protocol: (§2) The relative cytotoxicity of various compounds on tumor cell lines was investigated as follows. Cytotoxicity was measured by the MTT microculture tetrazolium colorimetric assay for all cell lines. The relative cytotoxicity of Na3 VO4 and VOSO4 was investigated using the following tumor cell lines: P388(WT) murine leukemia, P388 (ADR) murine leukemia, Lewis murine lung, MCF7 (WT) human breast, […] human lung, K562 human erythroleukemia, A431 human epidermal, LS180 human colon and SK-OV-3 human ovarian. The relative cytotoxicity of doxorubicin, Na3 VO4 and VOSO4 was investigated using the following tumor cell lines: P388(WT) murine leukemia, P388 (ADR) murine leukemia, MCF7(WT) human breast and MCF7 (ADR) human breast. The relative cytotoxicity of BMOV, BEOV and naglivan was investigated using the following tumor cell lines: P388(WT) murine leukemia, P388 (ADR) murine leukemia, Lewis murine lung, H460 human lung, K562 human erythroleukemia, and SK-OV-3 human ovarian.
(§3) The cells were plated (number of cells/well was different from cell line to cell depending on the dividing rate) in a 96-well microculture plate 24 hours prior to the delivery of the vanadium compounds. Serial concentrations of solutions of the test compounds (0.05-100 μM) were delivered to the corresponding wells. A blank column (without cells) and a control column (with cells without vanadium) were left. The cells were incubated for 72 hours continuously. An MTT solution was added to each well after this incubation period and the cells were incubated for 4 more hours for the completion of the dyeing process. The medium was removed find DMSO was added to each well. The absorbance of each well was read with a Titertek Multiskan (310C) spectrophotometer at 570 nm. The percentage of the absorbance of each vanadium concentration relative to the control calculated and the value of the 50% growth inhibition concentration (IC50) was obtained from the % control versus concentration plot. Each assay was repeated three times and the reported IC50 values were the mean of these three runs.

[4] = system: Lewis lung; assay: MTT cytotoxicity assay, Lewis lung; assay type: cell-based, murine; settings: 72 hours
Protocol: as §2, §3

[5] = system: H460; assay: MTT cytotoxicity assay, H460; assay type: cell-based, human; settings: H460, 72 hours
Protocol: as §2, §3

[6] = system: P388 (WT); assay: MTT cytotoxicity assay, P388 (WT); assay type: cell-based, murine; settings: P388 (WT), 72 hours; read-out: IC50 Value
Procedure, shortened: as §1

[7] = system: collagenase; assay: collagenase production by chondrocytes (ELISA); assay type: cell-based, bovine; settings: for production of metalloproteases, such as collagenase: summary statement
Procedure, shortened: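 Bovine articular chondrocytes, orthovanadate 100 μM pretreatment 2 h, then IL 1 (10 ng/ml) or PMA ([…]). Collagenase by ELISA of medium after 24 h; PLA2 as 3H-AA released over 10 min in 1 mg/ml BSA medium; PGE2 by RIA of supernatant after 6 h in Ham's F12.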

[8] = system: K562; assay: MTT cytotoxicity assay, K562; assay type: cell-based, human; settings: K562, 72 hours
Protocol: as §2
as §3, with “Serial concentrations of solutions of the test compounds (0.05-100 μM) were delivered to the corresponding wells.” left out

[9] = system: synoviocytes; assay: synoviocyte proliferation, dye exclusion (Example 24); assay type: cell-based
Protocol: The effect of vanadium compounds on synoviocyte proliferation was investigated as follows. Synoviocytes were plated on six well plates and treated with orthovanadate or vanadyl sulphate and incubated for 24 hours. The cells were removed and the number of viable cells determined by the dye exclusion method.

SMILES: Cc1occc(=O)c1[O-].Cc1occc(=O)c1[O-].[O]=[V+2] [BMOV, bis(methylmaltolato) oxovanadium (IV)]
- proliferation of cells, such as chondrocytes [1]: inhibit
- IC50 [2]: 61.2 µM
- IC50 [3]: 2.6 µM
- IC50 [4]: 142 µM
- IC50 [5]: 6.4 µM
- IC50 [6]: 31.1 µM
- production of metalloproteases, such as collagenase [7]: inhibit
- IC50 [8]: > 1000 µM

SMILES: [Na+].[Na+].[Na+].[O]=[V]([O-])([O-])[O-] [orthovanadate, sodium orthovanadate]
- toxicity to cells plated at low cell density ([1]; 0-50 μM, 48 hours): toxic
- proliferation of cells, such as chondrocytes [1]: inhibit
- IC50 [2]: 14.8 µM
- IC50 [3]: 2 µM
- IC50 [4]: 42.3 µM
- IC50 [5]: 1.5 µM
- IC50 [6]: 5.5 µM
- Number of cells ([9]; 25 μM, 24 hours (control 2.6)): 0.1 10^-5
- cytotoxicity to synoviocytes ([9]; 24 hours): cytotoxic to the cells
- synoviocyte proliferation ([9]; 24 hours): inhibited synoviocyte proliferation
- inhibition of collagenase production ([7]; 100 μM, IL 1 or PMA stimulated): completely inhibited
- production of metalloproteases, such as collagenase [7]: inhibit
- IC50 [8]: 100 µM
